Experiment: mn = molality of the nth substance listed, in mol/kg
Details: Liquid, Taylor dispersion method

[Cl-].[K+] [potassium chloride] + O
Details | binary diffusion coefficient [m2/s]
298.15 K, 160 kPa, m1 = 0 | 1.94e-09
298.15 K, 240 kPa, m1 = 1 | 1.89e-09
298.15 K, 290 kPa, m1 = 2.5 | 2.02e-09
298.15 K, 480 kPa, m1 = 4.5 | 2.17e-09
298.15 K, 2290 kPa, m1 = 2.5 | 2.02e-09
298.15 K, 4500 kPa, m1 = 2.5 | 2.04e-09
298.15 K, 10170 kPa, m1 = 1 | 1.91e-09
298.15 K, 14990 kPa, m1 = 0 | 1.94e-09
298.15 K, 24920 kPa, m1 = 2.5 | 2.04e-09
298.15 K, 27060 kPa, m1 = 4.5 | 2.14e-09
298.15 K, 28210 kPa, m1 = 1 | 1.92e-09
298.15 K, 30920 kPa, m1 = 0 | 1.95e-09
298.15 K, 32600 kPa, m1 = 2.5 | 2.05e-09
298.15 K, 37390 kPa, m1 = 2.5 | 2.04e-09
298.15 K, 38630 kPa, m1 = 1 | 1.92e-09
298.15 K, 43800 kPa, m1 = 4.5 | 2.17e-09
298.15 K, 45590 kPa, m1 = 1 | 1.95e-09
298.15 K, 47430 kPa, m1 = 2.5 | 2.04e-09
298.15 K, 48170 kPa, m1 = 0 | 1.95e-09
298.15 K, 59030 kPa, m1 = 1 | 1.96e-09
298.15 K, 62940 kPa, m1 = 0 | 1.97e-09
298.15 K, 64970 kPa, m1 = 2.5 | 2.07e-09
298.15 K, 66020 kPa, m1 = 4.5 | 2.18e-09
298.15 K, 66170 kPa, m1 = 2.5 | 2.08e-09
298.15 K, 67070 kPa, m1 = 1 | 1.98e-09
298.15 K, 67630 kPa, m1 = 2.5 | 2.08e-09
323.15 K, 500 kPa, m1 = 4.5 | 3.34e-09
323.15 K, 580 kPa, m1 = 2.5 | 3.15e-09
323.15 K, 610 kPa, m1 = 1 | 3.03e-09
323.15 K, 640 kPa, m1 = 0 | 3.02e-09
323.15 K, 3950 kPa, m1 = 4.5 | 3.32e-09
323.15 K, 15300 kPa, m1 = 1 | 3.06e-09
323.15 K, 15460 kPa, m1 = 0 | 3.02e-09
323.15 K, 31370 kPa, m1 = 4.5 | 3.35e-09
323.15 K, 33580 kPa, m1 = 0 | 3.08e-09
323.15 K, 40890 kPa, m1 = 2.5 | 3.12e-09
323.15 K, 43400 kPa, m1 = 1 | 3.08e-09
323.15 K, 45210 kPa, m1 = 2.5 | 3.18e-09
323.15 K, 47480 kPa, m1 = 2.5 | 3.17e-09
323.15 K, 49570 kPa, m1 = 4.5 | 3.29e-09
323.15 K, 52060 kPa, m1 = 1 | 3.1e-09
323.15 K, 60490 kPa, m1 = 2.5 | 3.12e-09
323.15 K, 62690 kPa, m1 = 4.5 | 3.35e-09
323.15 K, 64860 kPa, m1 = 2.5 | 3.15e-09
323.15 K, 68560 kPa, m1 = 0 | 3.09e-09
323.15 K, 68970 kPa, m1 = 1 | 3.1e-09
348.15 K, 650 kPa, m1 = 0 | 4.48e-09
348.15 K, 660 kPa, m1 = 1 | 4.23e-09
348.15 K, 700 kPa, m1 = 2.5 | 4.52e-09
348.15 K, 730 kPa, m1 = 4.5 | 4.65e-09
348.15 K, 12830 kPa, m1 = 4.5 | 4.59e-09
348.15 K, 15720 kPa, m1 = 0 | 4.49e-09
348.15 K, 18050 kPa, m1 = 2.5 | 4.55e-09
348.15 K, 25820 kPa, m1 = 1 | 4.25e-09
348.15 K, 29270 kPa, m1 = 0 | 4.44e-09
348.15 K, 29960 kPa, m1 = 2.5 | 4.57e-09
348.15 K, 31120 kPa, m1 = 1 | 4.26e-09
348.15 K, 32970 kPa, m1 = 4.5 | 4.62e-09
348.15 K, 35870 kPa, m1 = 1 | 4.24e-09
348.15 K, 39760 kPa, m1 = 1 | 4.23e-09
348.15 K, 41210 kPa, m1 = 1 | 4.25e-09
348.15 K, 41980 kPa, m1 = 1 | 4.25e-09
348.15 K, 45150 kPa, m1 = 2.5 | 4.58e-09
348.15 K, 45330 kPa, m1 = 1 | 4.26e-09
348.15 K, 46780 kPa, m1 = 0 | 4.49e-09
348.15 K, 62420 kPa, m1 = 1 | 4.24e-09
348.15 K, 64020 kPa, m1 = 1 | 4.25e-09
348.15 K, 65910 kPa, m1 = 4.5 | 4.63e-09
348.15 K, 66700 kPa, m1 = 0 | 4.52e-09
348.15 K, 67090 kPa, m1 = 1 | 4.25e-09
348.15 K, 68900 kPa, m1 = 2.5 | 4.59e-09
373.15 K, 740 kPa, m1 = 4.5 | 6.25e-09
373.15 K, 820 kPa, m1 = 0 | 6.11e-09
373.15 K, 820 kPa, m1 = 1 | 5.94e-09
373.15 K, 940 kPa, m1 = 2.5 | 5.92e-09
373.15 K, 17140 kPa, m1 = 2.5 | 5.92e-09
373.15 K, 17780 kPa, m1 = 4.5 | 6.22e-09
373.15 K, 23410 kPa, m1 = 1 | 5.93e-09
373.15 K, 24180 kPa, m1 = 0 | 6.14e-09
373.15 K, 24360 kPa, m1 = 2.5 | 5.94e-09
373.15 K, 31320 kPa, m1 = 2.5 | 5.89e-09
373.15 K, 41280 kPa, m1 = 4.5 | 6.24e-09
373.15 K, 42090 kPa, m1 = 1 | 5.94e-09
373.15 K, 43130 kPa, m1 = 0 | 6.11e-09
373.15 K, 47550 kPa, m1 = 2.5 | 5.98e-09
373.15 K, 47900 kPa, m1 = 4.5 | 6.21e-09
373.15 K, 54290 kPa, m1 = 4.5 | 6.24e-09
373.15 K, 54410 kPa, m1 = 4.5 | 6.24e-09
373.15 K, 57260 kPa, m1 = 2.5 | 5.86e-09
373.15 K, 59590 kPa, m1 = 2.5 | 5.96e-09
373.15 K, 63050 kPa, m1 = 2.5 | 5.96e-09
373.15 K, 64210 kPa, m1 = 1 | 5.97e-09
373.15 K, 64280 kPa, m1 = 0 | 6.18e-09
373.15 K, 65700 kPa, m1 = 4.5 | 6.27e-09
423.15 K, 3080 kPa, m1 = 0 | 1.03e-08
423.15 K, 3410 kPa, m1 = 1 | 9.43e-09
423.15 K, 4440 kPa, m1 = 2.5 | 9.69e-09
423.15 K, 13020 kPa, m1 = 4.5 | 9.27e-09
423.15 K, 15130 kPa, m1 = 1 | 9.45e-09
423.15 K, 15180 kPa, m1 = 2.5 | 9.67e-09
423.15 K, 15260 kPa, m1 = 2.5 | 9.68e-09
423.15 K, 18510 kPa, m1 = 0 | 1.03e-08
423.15 K, 33580 kPa, m1 = 0 | 1.03e-08
423.15 K, 34630 kPa, m1 = 2.5 | 9.7e-09
423.15 K, 34720 kPa, m1 = 1 | 9.45e-09
423.15 K, 40540 kPa, m1 = 4.5 | 9.29e-09
423.15 K, 56030 kPa, m1 = 2.5 | 9.7e-09
423.15 K, 61620 kPa, m1 = 1 | 9.48e-09
423.15 K, 63300 kPa, m1 = 0 | 1.03e-08
423.15 K, 65050 kPa, m1 = 2.5 | 9.72e-09
423.15 K, 65640 kPa, m1 = 1 | 9.49e-09
423.15 K, 68930 kPa, m1 = 4.5 | 9.3e-09
